The test concerns AsPC1, BxPC3, PANC1, MIAPaCa2, PO2, A375VR, SKMEL-28, HCT-116, 4T1, U87, U251, T98G, CT2A cells. Nature of the test: Cytotoxicity studies, sulforhodamine B (SRB) assay. It is filed as cell-based, human and murine. To be noted: range over all the cell lines, read-out: IC50 (cell survival). How it is done: FIGS. 1A to 1E show the effect of Pimavanserin tartrate suppresses the cell survival of pancreatic cancer cells. FIGS. 1F to 1G show the effect of pimavanserin tartrate suppresses the cell survival of melanoma cells. […] In the figures, the following cancer cells were evaluated: AsPC1 cells (FIG. 1A), BxPC3 cells (FIG. 1B), PANC1 cells (FIG. 1C), MIAPaCa2 cells (FIG. 1D), PO2 cells (FIG. 1E), A375VR cells (FIG. 1F), SKMEL-28 cells (FIG. 1G), HCT-116 cells (FIG. 1H), 4T1 cells (FIG. 1I), U87 cells (FIG. 1J), U251 cells (FIG. 1K), T98G vells (FIG. 1L), CT2A cells (FIG. 1M) which were treated with varied concentrations of pimavanserin tartrate for 24, 48 and 72 hours. Cell survival was determined by sulforhodamine B assay to estimate the IC50 values. The studies were repeated independently for three times with 4 replicates in each test. Values are plotted as mean±SD and the statistical significance level was considered as p<0.05.
Cell culture. Human pancreatic cancer cell lines AsPC1, BxPC3, PANC1, MIAPaCa2 cells, SKMEL-28 human melanoma cells, U87, U251, T98G human glioblastoma cells, and human colon cancer cell line HCT-116 were purchased from ATCC (Rockville, Md.). CT2A murine glioblastoma cells was a kind gift from Dr. Jill Edgar, Boston College, Boston. Cell lines were authenticated by STR analysis at TTUHSC core facilities (Lubbock, Tex.). […]
Cytotoxicity studies. The cytotoxic effects of pimavanserin tartrate in AsPC1, BxPC3, PANC1, MIAPaCa2, PO2, A375VR, SKMEL-28, HCT-116, 4T1, U87, U251, T98G, CT2A cells were determined by sulforhodamine B (SRB) assay. […] The optical density was measured using plate reader (Biotek instruments) as described by the present inventors (12).
Pimavanserin inhibited the proliferation of cancer cells, which included pancreatic cancer, melanoma, colon cancer, glioblastoma and breast cancer cells. The cytotoxic effects of pimavanserin were evaluated by SRB assay in the above mentioned cancer cells. […]
Background: The SRB assay estimates cell density from bound dye.

By IC50 is commonly meant the concentration needed to halve the response being measured.

Where two headings read alike, the source gives them in different places.

On to `CC(C)COc1ccc(CNC(=O)N(Cc2ccc(F)cc2)C2CCN(C)CC2)cc1` [pimavanserin, N-(4-fluorophenylmethyl)-N-(1-methylpiperidin-4-yl)-N′-(4-(2-methylpropyloxy)phenylmethyl)carbamide], for which the IC50 by setting is: (24 hours) 7 to 15 µM; (48 hours) 3 to 8 µM; (72 hours) 3 to 8 µM.

These data come from US11357766B2, “Compositions and methods for treating cancer” (Texas Tech University System, priority 2017, dated 2022).
